Data published in patent US8299085B2, “Quinazoline derivatives” (Novartis AG, priority 2004, dated 2012).

Columns and labels:
[1] = system: patients with diabetic neuropathy; assay: Clinical study, chronic pain in patients with diabetic neuropathy; assay type: in vivo, human; conditions: 2400 mg/day, Maintenance and Follow-up Periods, statistically significant
Experimental: Patients are randomized to receive 2400 mg/day of the compound or placebo in a 1:1 ratio.
The study consists of a Pre-randomization Phase (1 week) and a Double-blind Phase (5 weeks). The double-blind Phase consists of three periods: a one week Titration Period, a three-week Maintenance Period and a one-week Follow-up Period.
During the 1-week Pre-randomization Phase, the eligibility of the patients is evaluated. Patients meeting all inclusion/exclusion criteria are randomized to either the compound or placebo in the Double-blind Phase. During the 1-week Titration Period, study medication is up-titrated from 800 mg/day (given b.i.d.) to 2400 mg/day (given b.i.d.). Patients who complete the 1-week Titration Period then enter the 3-week Maintenance Period. Patients who complete the 3-week Maintenance period or prematurely discontinue double-blind treatment then enter the 1-week Follow-up Period. Study medication is completely withdrawn on entry into the Follow-up Period. During the Double-blind Phase, serial efficacy and safety assessments are obtained. […]
The SF-MPQ total pain score at the end of the Maintenance Period is analyzed using an analysis of covariance model adjusting for the effect of treatment on post-treatment scores by using the baseline SF-MPQ total pain score as a covariate. Average weekly pain severity is analyzed using an analysis of covariance model with repeated measures using the treatment week and the mean pain severity rating during the Pre-randomization Phase as covariates. Usage of rescue medication during the Double-blind Phase is analyzed using the Cochran-Mantel-Haenszel test controlling for center. The mean pain severity rating during the Follow-up Period (rebound pain) is analyzed using an analysis of covariance model adjusting for the effect of treatment on the mean pain severity rating of the Follow-up Period with the mean pain severity rating during the Prerandomization Phase as a covariate.

Structure (SMILES)	melting point	pain severity ratings relative to placebo [1]
CS(=O)(=O)Nn1c(=O)[nH]c2cc([N+](=O)[O-])c(-n3cnc(CO)c3)cc2c1=O [Example 2, N-[6-(4-Hydroxymethyl-imidazol-1-yl)-7-nitro-2,4-dioxo-1,4-dihydro-2H-quinazolin-3-yl]-methanesulfonamide]	> 300 °C	–
CS(=O)(=O)Nn1c(=O)[nH]c2cc([N+](=O)[O-])c(NCC(O)c3cccs3)cc2c1=O (centres unmarked) [Example 6, N-[6-(2-Hydroxy-2-thiophen-2-yl-ethylamino)-7-nitro-2,4-dioxo-1,4-dihydro-2H-quinazolin-3-yl]-methanesulfonamide]	110 °C (dec.)	–
COc1cc2c(=O)n(NS(C)(=O)=O)c(=O)[nH]c2cc1[N+](=O)[O-] [Example 15, N-(6-Methoxy-7-nitro-2,4-dioxo-1,4-dihydro-2H-quinazolin-3-yl)-methanesulfonamide]	> 280 °C	–
CS(=O)(=O)Nn1c(=O)[nH]c2cc(C(F)(F)F)c(N3CCOCC3)cc2c1=O [Example 68, N-(6-Morpholin-4-yl-2,4-dioxo-7-trifluoromethyl-1,4-dihydro-2H-quinazolin-3-yl) -methanesulfonamide]	–	decrease pain severity ratings relative to placebo
CCS(=O)(=O)Nn1c(=O)[nH]c2cc(C(F)(F)F)c(-n3cnnc3)cc2c1=O [Example 70, Ethanesulfonic acid (2,4-dioxo-6-[1,2,4]triazol-4-yl-7-trifluoromethyl-1,4-dihydro-2H-quinazolin-3-yl)-amide]	185 to 195 °C	–
CCOC(=O)c1ncn(-c2cc3c(=O)n(NS(C)(=O)=O)c(=O)[nH]c3cc2C(F)(F)F)n1 [Example 71, 1-(3-Methanesulfonylamino-2,4-dioxo-7-trifluoromethyl-1,2,3,4-tetrahydro-quinazolin-6-yl)-1H-[1,2,4]triazole-3-carboxylic acid ethyl ester]	267 to 270 °C	–
CNC(=O)c1ncn(-c2cc3c(=O)n(NS(C)(=O)=O)c(=O)[nH]c3cc2C(F)(F)F)n1 [Example 72, 1-(3-Methanesulfonylamino-2,4-dioxo-7-trifluoromethyl-1,2,3,4-tetrahydro-quinazolin-6-yl)-1H-[1,2,4]triazole-3-carboxylic acid methylamide]	257 to 260 °C	–
CS(=O)(=O)Nn1c(=O)[nH]c2cc(C(F)(F)F)c(-n3ccnc3)cc2c1=O [Example 73, N-(6-Imidazol-1-yl-2,4-dioxo-7-trifluoromethyl-1,4-dihydro-2H-quinazolin-3-yl)-methanesulfonamide]	285 to 301 °C (dec.)	–
CS(=O)(=O)Nn1c(=O)[nH]c2cc(C(F)(F)F)c(N3CCSCC3)cc2c1=O [Example 74, N-(2,4-Dioxo-6-thiomorpholin-4-yl-7-trifluoromethyl-1,4-dihydro-2H-quinazolin-3-yl)-methanesulfonamide]	245 to 260 °C (dec.)	–
CS(=O)(=O)Nn1c(=O)[nH]c2cc(C(F)(F)F)c(N3CCCOCC3)cc2c1=O [Example 75, N-(6-[1,4]Oxazepan-4-yl-2,4-dioxo-7-trifluoromethyl-1,4-dihydro-2H-quinazolin-3-yl)-methanesulfonamide]	–	decrease pain severity ratings relative to placebo
CS(=O)(=O)Nn1c(=O)[nH]c2cc(C(F)(F)F)c(N3CCC(F)(F)CC3)cc2c1=O [Example 76, N-[6-(4,4-Difluoro-piperidin-1-yl)-2,4-dioxo-7-trifluoromethyl-1,4-dihydro-2H-quinazolin-3-yl]-methanesulfonamide]	249 to 261 °C (dec.)	–
CS(=O)(=O)Nn1c(=O)[nH]c2cc(C(F)(F)F)c(N3CCC4(CC3)OCCO4)cc2c1=O [Example 77, N-[6-(1,4-Dioxa-8-aza-spiro[4.5]dec-8-yl)-2,4-dioxo-7-trifluoromethyl-1,4-dihydro-2H-quinazolin-3-yl]-methanesulfonamide]	253 to 262 °C	–
CS(=O)(=O)Nn1c(=O)[nH]c2cc(C(F)(F)F)c(N3CCC(=O)CC3)cc2c1=O [Example 78, N-[2,4-Dioxo-6-(4-oxo-piperidin-1-yl)-7-trifluoromethyl-1,4-dihydro-2H-quinazolin-3-yl]-methanesulfonamide]	238 to 242 °C	–
CS(=O)(=O)Nn1c(=O)[nH]c2cc(C(F)(F)F)c(N3CCC3)cc2c1=O [Example 79, N-(6-Azetidin-1-yl-2,4-dioxo-7-trifluoromethyl-1,4-dihydro-2H-quinazolin-3-yl)-methanesulfonamide]	266 to 283 °C	–
CS(=O)(=O)Nn1c(=O)[nH]c2cc(C(F)(F)F)c(Oc3cccnc3)cc2c1=O [Example 80, N-[2,4-Dioxo-6-(pyridin-3-yloxy)-7-trifluoromethyl-1,4-dihydro-2H-quinazolin-3-yl]-methanesulfonamide]	194 to 196 °C	–
CN(C)c1cc2c(=O)n(NS(C)(=O)=O)c(=O)[nH]c2cc1C(F)(F)F [Example 81, N-(6-Dimethylamino-2,4-dioxo-7-trifluoromethyl-1,4-dihydro-2H-quinazolin-3-yl)-methanesulfonamide]	254 to 272 °C	–
CS(=O)(=O)Nn1c(=O)[nH]c2cc(C(F)(F)F)c(NCCO)cc2c1=O [Example 82, N-[6-(2-Hydroxy-ethylamino)-2,4-dioxo-7-trifluoromethyl-1,4-dihydro-2H-quinazolin-3-yl]-methanesulfonamide]	240 to 246 °C	–
COc1ccc(-c2cn(-c3cc4c(=O)n(NS(C)(=O)=O)c(=O)[nH]c4cc3C(F)(F)F)cn2)cc1 [Example 84, N-{6-[4-(4-Methoxy-phenyl)-imidazol-1-yl]-2,4-dioxo-7-trifluoromethyl-1,4-dihydro-2H-quinazolin-3-yl}-methanesulfonamide]	293 to 294 °C	–
COCc1ccc(-c2cn(-c3cc4c(=O)n(NS(C)(=O)=O)c(=O)[nH]c4cc3C(F)(F)F)cn2)cc1 [Example 85, N-{6-[4-(4-Methoxymethyl-phenyl)-imidazol-1-yl]-2,4-dioxo-7-trifluoromethyl-1,4-dihydro-2H-quinazolin-3-yl}-methanesulfonamide]	252 to 257 °C	–
COC(=O)c1cn(-c2cc3c(=O)n(NS(C)(=O)=O)c(=O)[nH]c3cc2C(F)(F)F)cn1 [Example 88, 1-(3-methanesulfonylamino-2,4-dioxo-7-trifluoromethyl-1,2,3,4-tetrahydro-quinazolin-6-yl)-1H-imidazole-4-carboxylic acid methyl ester]	287 to 288 °C	–
CN(C)C(=O)c1cn(-c2cc3c(=O)n(NS(C)(=O)=O)c(=O)[nH]c3cc2C(F)(F)F)cn1 [Example 90, 1-(3-Methanesulfonylamino-2,4-dioxo-7-trifluoromethyl-1,2,3,4-tetrahydro-quinazolin-6-yl)-1H-imidazole-4-carboxylic acid dimethylamide]	284 to 286 °C	–
CNC(=O)c1cn(-c2cc3c(=O)n(NS(C)(=O)=O)c(=O)[nH]c3cc2C(F)(F)F)cn1 [Example 91, 1-(3-Methanesulfonylamino-2,4-dioxo-7-trifluoromethyl-1,2,3,4-tetrahydro-quinazolin-6-yl)-1H-imidazole-4-carboxylic acid methylamide]	292 to 295 °C	–
CS(=O)(=O)Nn1c(=O)[nH]c2cc(C(F)(F)F)c(-n3cnc(CO)c3)cc2c1=O [Example 93, N-[6-(4-Hydroxymethyl-imidazol-1-yl)-2,4-dioxo-7-trifluoromethyl-1,4-dihydro-2H-quinazolin-3-yl]-methanesulfonamide]	225 to 230 °C	–
CS(=O)(=O)Nn1c(=O)[nH]c2cc(C(F)(F)F)c(-n3cnc(Br)c3)cc2c1=O [Example 95, N-[6-(4-Bromo-imidazol-1-yl)-2,4-dioxo-7-trifluoromethyl-1,4-dihydro-2H-quinazolin-3-yl]-methanesulfonamide]	229 to 233 °C	–
CS(=O)(=O)Nn1c(=O)[nH]c2cc(C(F)(F)F)c(-n3cnc(C(F)(F)F)c3)cc2c1=O [Example 96, N-[6-(4-Trifluoromethyl-imidazol-1-yl)-2,4-dioxo-7-trifluoromethyl-1,4-dihydro-2H-quinazolin-3-yl]-methanesulfonamide]	144 to 147 °C	–
COC(=O)Nc1cc2c(=O)n(NS(C)(=O)=O)c(=O)[nH]c2cc1C(F)(F)F [Example 101, (3-Methanesulfonylamino-2,4-dioxo-7-trifluoromethyl-1,2,3,4-tetrahydro-quinazolin-6-yl)carbamic acid methyl ester]	232.4 to 240.2 °C	–
